The results in this text go back to PubChem BioAssay (NCI).

Test systems include COLO 205 colon; DMS 273 small cell lung; K-562 leukemia; LXFL 529 NSCLC; OVCAR-4 ovarian; SK-OV-3 ovarian; SNB-19 CNS; TK-10 renal; UACC-257 melanoma; PC-3 prostate.
Experiment in all cases: inhibition of tumour cell growth, NCI panel, 48 h

Several values for one entry are separate records, joined by “and”; a condition that tells them apart may be missing. Equal values may be shown once.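 Tested at 5 concentrations; 48 h exposure; 96-well plates; endpoints linearly interpolated, else capped at highest concentration. Abbreviation: GI50, concentration required for 50% inhibition of growth. TGI denotes the concentration required for complete inhibition of growth.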

For `C/C(=C\c1ccccc1)C(O)C(=O)c1nc2ccc(Cl)cc2[nH]c1=O` (configuration not stated), the TGI in the test on COLO 205 colon, in the test with DMS 273 small cell lung, with K-562 leukemia, in the test on LXFL 529 NSCLC, with OVCAR-4 ovarian and in the test with SK-OV-3 ovarian was more than 100 µM throughout. Moreover, the TGI in the test with SNB-19 CNS, with TK-10 renal and in the test on UACC-257 melanoma was more than 100 µM each time.
As to `CCCCC(C(=O)C(=O)Nc1ccccc1CC)C(=O)C(C)C` (configuration not stated), the TGI in the test on COLO 205 colon, with DMS 273 small cell lung, in the test with K-562 leukemia, with LXFL 529 NSCLC, in the test with OVCAR-4 ovarian and with SK-OV-3 ovarian was more than 100 µM in each case. Moreover, the TGI with SNB-19 CNS, with TK-10 renal and in the test with UACC-257 melanoma was more than 100 µM in each case.
As to `CC(=O)NC(CCCNC(=O)OCc1ccccc1)C(=O)NCc1ccccc1` (configuration not stated), the TGI in the test on COLO 205 colon, with DMS 273 small cell lung, with K-562 leukemia, in the test with LXFL 529 NSCLC, in the test on OVCAR-4 ovarian and in the test with SK-OV-3 ovarian was more than 100 µM in each case. In addition, the TGI with SNB-19 CNS, with TK-10 renal and in the test on UACC-257 melanoma was more than 100 µM each time.
Take `CCOC(=O)C1C(NC(N)=O)N(Cc2ccccc2)C(=O)N1Cc1ccccc1` (configuration not stated): the TGI with COLO 205 colon, in the test on DMS 273 small cell lung, with K-562 leukemia, with LXFL 529 NSCLC, in the test on OVCAR-4 ovarian and in the test with SK-OV-3 ovarian was more than 100 µM each time. In addition, the TGI with SNB-19 CNS, with TK-10 renal and in the test on UACC-257 melanoma was more than 100 µM throughout.
On to `O/N=C1/C(=C/c2ccc(OCc3ccccc3)cc2)CCCC1C(NO)c1ccc(OCc2ccccc2)cc1` (configuration not stated), for which the TGI with COLO 205 colon was more than 100 µM; with DMS 273 small cell lung it was more than 100 µM; with K-562 leukemia, more than 100 µM; in the test with LXFL 529 NSCLC, more than 100 µM; in the test on OVCAR-4 ovarian, 57.5 µM; in the test on SK-OV-3 ovarian it was more than 100 µM. Moreover, the TGI with SNB-19 CNS and in the test on UACC-257 melanoma was more than 100 µM in each case.
Take `CCCCCNC(=O)CCCCCCCCCCCNC(=O)CCCCCCCCCCN1C=CC(=CC=C2C=CC(=O)C=C2)C=C1`: the TGI with COLO 205 colon was 28.6 µM; in the test on DMS 273 small cell lung it was more than 100 µM; in the test on K-562 leukemia, more than 100 µM; with LXFL 529 NSCLC, more than 100 µM; in the test with OVCAR-4 ovarian, more than 100 µM; with SK-OV-3 ovarian it was more than 100 µM. The TGI with SNB-19 CNS is more than 100 µM; with UACC-257 melanoma, 88.7 µM.
`CC(C)(C)C1CCC(O)(c2ccccc2)CC1` (configuration not stated): the TGI is > 100 µM and 31.7 µM with COLO 205 colon; > 100 µM and 33.6 µM with DMS 273 small cell lung; > 100 µM and 68.2 µM with K-562 leukemia; > 100 µM and 49.2 µM with LXFL 529 NSCLC; more than 100 µM in the test with SK-OV-3 ovarian; more than 100 µM with SNB-19 CNS. Moreover, the TGI in the test on TK-10 renal is > 100 µM and 53.1 µM; with UACC-257 melanoma, > 100 µM and 48.2 µM.
`COc1ccc(C(C)Nc2cc(OC)c(OC)c(OC)c2)cc1` (configuration not stated): the TGI is 7.78 µM in the test on COLO 205 colon; more than 100 µM in the test with DMS 273 small cell lung; more than 45 µM in the test on K-562 leukemia; more than 100 µM in the test with LXFL 529 NSCLC; 63.8 µM in the test on OVCAR-4 ovarian; more than 62.5 µM with SK-OV-3 ovarian. Moreover, the TGI in the test with SNB-19 CNS, in the test on TK-10 renal and in the test on UACC-257 melanoma was more than 100 µM in each case.
In the case of `COC(=O)C1CC(=O)O[C@H]1c1ccc(OC)c(OC)c1` (some centres not stated), the TGI in the test on COLO 205 colon, in the test on DMS 273 small cell lung, in the test with K-562 leukemia, with LXFL 529 NSCLC, with OVCAR-4 ovarian and in the test with SK-OV-3 ovarian was more than 100 µM throughout. Further, the TGI in the test on TK-10 renal and in the test on UACC-257 melanoma was more than 100 µM throughout.
`COC1=CC(=O)C(O)=C(CC2(C)C(C)CCC3(C)C2CCCC3(C)C)C1=O` (configuration not stated): the TGI with COLO 205 colon is 19.2 µM; in the test with DMS 273 small cell lung, 18.3 µM; in the test on K-562 leukemia, more than 100 µM; in the test on LXFL 529 NSCLC it was 22.7 µM; in the test with OVCAR-4 ovarian it was more than 100 µM; in the test with SK-OV-3 ovarian it was more than 100 µM. The figures for the TGI in the test with SNB-19 CNS, in the test with TK-10 renal and in the test with UACC-257 melanoma were 19.3 µM, 37.2 µM and 21.9 µM, respectively.
`COC(=O)N/N=C(\C)c1sc(-c2nc(C)c(/C(C)=N/NC(=O)OC)s2)nc1C`: the TGI in the test on COLO 205 colon, in the test with DMS 273 small cell lung, in the test on K-562 leukemia, in the test on LXFL 529 NSCLC, in the test on OVCAR-4 ovarian and with SK-OV-3 ovarian was more than 100 µM each time. The TGI with SNB-19 CNS, in the test with TK-10 renal and with UACC-257 melanoma was more than 100 µM each time.
`ON1CCc2c([nH]c3ccccc23)C1c1ccc(Cl)cc1` (configuration not stated): the TGI in the test on COLO 205 colon was 80.8 µM; in the test with DMS 273 small cell lung, 97.4 µM; in the test on K-562 leukemia, more than 100 µM; with LXFL 529 NSCLC it was more than 100 µM; in the test on SK-OV-3 ovarian, more than 100 µM; in the test on SNB-19 CNS it was more than 100 µM. The TGI in the test on TK-10 renal and with UACC-257 melanoma was more than 100 µM each time.
As for `CC(C)(C)C1CC[C@H]2c3c([nH]c4ccccc34)[C@H]3C(=O)N(c4ccc(F)cc4)C(=O)[C@H]3[C@H]2C1` (some centres not stated), the TGI in the test with COLO 205 colon stood at 30.4 µM; with DMS 273 small cell lung, 33.3 µM; in the test with K-562 leukemia, 42.5 µM; with LXFL 529 NSCLC it was 30.7 µM; in the test on OVCAR-4 ovarian, 23.7 µM; in the test with SK-OV-3 ovarian, 32 µM. In addition, the results for the TGI in the test on SNB-19 CNS, with TK-10 renal and in the test on UACC-257 melanoma were 29.8 µM, 30.8 µM and 54.2 µM, respectively.
Take `C=C(C)c1nc(Oc2ccccc2)nc(Oc2ccccc2)n1`: the TGI in the test with COLO 205 colon came to 17.2 µM; in the test with DMS 273 small cell lung it was 19.7 µM; in the test on K-562 leukemia, 5.49 µM; with LXFL 529 NSCLC, 3.88 µM; in the test with OVCAR-4 ovarian, 31.7 µM; in the test on PC-3 prostate, 27.8 µM. Also, the TGI turned out to be 30.3 µM in the test on SK-OV-3 ovarian, 18.5 µM with SNB-19 CNS, 14 µM in the test with TK-10 renal and 23 µM in the test on UACC-257 melanoma.
For the compound `CN(C)c1ccc(/C=C2\CCc3ccccc3C2=O)cc1Br`, the TGI in the test with COLO 205 colon, in the test with DMS 273 small cell lung, in the test with K-562 leukemia, with LXFL 529 NSCLC, with OVCAR-4 ovarian and with SK-OV-3 ovarian was more than 100 µM in each case. Moreover, the TGI with SNB-19 CNS, in the test with TK-10 renal and in the test on UACC-257 melanoma was more than 100 µM throughout.
For `COc1nc(N)nc2nc[nH]c12`, the GI50 is more than 1 mM with COLO 205 colon; more than 800 µM in the test with DMS 273 small cell lung; more than 800 µM in the test on K-562 leukemia; > 800 µM and 982 µM in the test with OVCAR-4 ovarian; 776 µM and 508 µM with SK-OV-3 ovarian; more than 1 mM with SNB-19 CNS. The GI50 in the test on TK-10 renal is 431 µM and 442 µM; in the test with UACC-257 melanoma it was more than 1 mM. In addition, the TGI was 419 µM and > 800 µM and > 1000 µM with COLO 205 colon; 500 µM and > 800 µM in the test with DMS 273 small cell lung; more than 1000 µM in the test on K-562 leukemia; more than 800 µM in the test on LXFL 529 NSCLC; 500 µM and > 800 µM and > 1000 µM in the test on OVCAR-4 ovarian; 500 µM and > 1000 µM in the test with PC-3 prostate. Also, the TGI in the test on SK-OV-3 ovarian was 212 µM and 800 µM and > 1000 µM; in the test on SNB-19 CNS, more than 1000 µM; with TK-10 renal, 500 µM and 800 µM and > 1000 µM; in the test with UACC-257 melanoma, 500 µM and > 800 µM and > 1000 µM.
Consider `O=C1c2ccccc2C2(O)N(c3ccccc3)C(=S)N(c3ccccc3)C12O` (configuration not stated), for which the TGI in the test on COLO 205 colon, in the test on DMS 273 small cell lung, in the test with K-562 leukemia, in the test with LXFL 529 NSCLC, in the test with OVCAR-4 ovarian and in the test with SK-OV-3 ovarian was more than 100 µM throughout. For the same compound, the TGI in the test with SNB-19 CNS, with TK-10 renal and in the test on UACC-257 melanoma was more than 100 µM each time.
Turning to `O=c1c2cc(Br)ccc2nc(CNc2ccccc2)n1-c1ccccc1`, the TGI in the test with COLO 205 colon is 31.2 µM; with DMS 273 small cell lung it was more than 100 µM; in the test with K-562 leukemia, 58.1 µM; with LXFL 529 NSCLC it was 36.9 µM; in the test on OVCAR-4 ovarian it was 23 µM; in the test on SK-OV-3 ovarian, more than 96.4 µM. The TGI was more than 72.1 µM in the test with SNB-19 CNS, 45.5 µM in the test with TK-10 renal and 98 µM in the test with UACC-257 melanoma.
